The record followed here is patent US5523308A, “Peptidyl heterocycles useful in the treatment of thrombin related disorders” (priority 1995, dated 1996).

The target in one assay is T1, human alpha-thrombin (Homo sapiens, UniProt P00734).
T1 construct: commercial human alpha-thrombin (American Diagnostica); purchased American Diagnostica
The experiment in a line: Thrombin-catalyzed hydrolysis of chromogenic substrate Spectozyme TH (in vitro enzyme assay). The settings on record: 1 nM thrombin, 5-100 μM Spectozyme TH, 37° C., pH 7.4; read-out: Thr Ki (listed in place of the IC50). Format: biochemical.
Experimental: Thrombin-catalyzed hydrolysis rates were measured spectrophotometrically using commercial human alpha-thrombin (American Diagnostica), a chromogenic substrate (Spectozyme® TH (H-D-HHT-Ala-Arg-pNA.2AcOH), American Diagnostica) in aqueous buffer (10 mM Tris, 10 mM Hepes, 150 mM NaCl, 0.1% PEG; pH 7.4), and a microplate reader (Molecular Devices). Changes in absorbance at 405 nm were monitored (Softmax, Molecular Devices), upon addition of enzyme, both with and without inhibitor present at 37° C. over 30 minutes. […] Michaelis-Menton kinetics were applied to the initial reaction slopes. […] Michaelis-Menton kinetics were applied to the initial reaction slopes using the program K.Cat (Bio Metallics Inc.).
As to `CN(C)c1cccc2c(S(=O)(=O)N[C@@H](CCCNC(=N)N)C(=O)N3CCCCC3CCC(=O)c3nccs3)cccc12` (single isomer, unassigned) [Compound 26], the Ki (commonly a measure of affinity in units of concentration, obtained from inhibition or displacement) is 38000 nM. On the same count and under the same terms, as for `CN(C)c1cccc2c(S(=O)(=O)N[C@@H](CCCNC(=N)N)C(=O)N3CCCCC3CCC(=O)c3nccs3)cccc12` (single isomer, unassigned) [Compound 27], the figure is 1200 nM; as for `CN[C@H](Cc1ccccc1)C(=O)N1CCC[C@H]1C(=O)N[C@H](CCCNC(=N)N)C(=O)c1nc2ccccc2s1` [Compound 2, N-METHYL-D-PHENYLALANYL-N-[4-[(AMINOIMINOMETHYL)AMINO]-1R-[(BENXOTHIAZOL-2- YL)CARBONYL]BUTYL]-L-PROLINAMIDE], 0.9 nM.

Another assay addresses T2, Bovine type 1 trypsin (Bos taurus, UniProt P00760).
T2 construct: purchased Sigma
T2 sequence (P00760 24-246): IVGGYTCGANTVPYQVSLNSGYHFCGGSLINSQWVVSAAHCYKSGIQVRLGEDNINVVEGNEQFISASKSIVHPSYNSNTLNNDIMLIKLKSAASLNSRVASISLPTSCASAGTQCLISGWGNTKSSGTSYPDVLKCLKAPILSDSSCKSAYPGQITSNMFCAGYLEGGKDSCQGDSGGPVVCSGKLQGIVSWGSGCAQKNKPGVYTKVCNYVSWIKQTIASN
The experiment in a line: Trypsin-catalyzed hydrolysis of chromogenic substrate Spectrozyme TRY (in vitro enzyme assay). The settings on record: 3.2 U/ml trypsin, 0.1-0.3 mM Spectrozyme TRY; read-out: Trp IC50. The class given is biochemical. As to the method: The compounds of the invention were tested for their ability to inhibit thrombin mediated hydrolysis. An in vitro enzyme assay was performed as well as an ex vivo assay. In addition, the compounds were tested in vitro for their ability to inhibit trypsin, as an indication of their selectivity.
Trypsin-catalyzed hydrolysis rates were measured using the same method as the thrombin procedure.
The compound numbers in the table correspond to the examples described hereinafter.
Consider `CN[C@H](Cc1ccccc1)C(=O)N1CCC[C@H]1C(=O)N[C@@H](CCCNC(=N)N)C(=O)c1nc2ccc(C(N)=O)cc2s1` [Compound 14, N-METHYL-D-PHENYLALANYL-N-[4-[(AMINOIMINOMETHYL)AMINO]-1S-[(6-CARBOXAMIDOBE NXOTHIAZOL-2-YL)CARBONYL]BUTYL]-L-PROLINAMIDE], for which the IC50 (as a rule, the concentration at which inhibition is half-maximal) is 3 nM. Still for that read-out and setting: next, `CN[C@H](Cc1ccccc1)C(=O)N1CCC[C@H]1C(=O)N[C@H](CCCNC(=N)N)C(=O)c1nc2ccc(CO)cc2s1` [Compound 16, N-METHYL-D-PHENYLALANYL-N-[4-[(AMINOIMINOMETHYL)AMINO]-1R-[(6-HYDROXYMETHYL BENXOTHIAZOL-2-YL)CARBONYL]BUTYL]-L-PROLINAMIDE]: 238 nM; `CN[C@H](Cc1ccccc1)C(=O)N1CCC[C@H]1C(=O)N[C@@H](CCCNC(=N)N)C(=O)c1nc2ccc(F)cc2s1` [Compound 18, N-METHYL-D-PHENYLALANYL-N-[4-[(AMINOIMINOMETHYL)AMINO]-1S-[(6-FLUOROBENXOTH IAZOL-2-YL)CARBONYL]BUTYL]-L-PROLINAMIDE]: 130 nM; `N=C(N)NCCC[C@H](NC(=O)C1CCCC1)C(=O)c1nc2ccccc2s1` [Compound 31]: 80 nM. As for `N=C(N)NCCC[C@H](NC(=O)[C@@H]1CCCN1C(=O)[C@H](N)Cc1ccccc1)C(=O)c1nc2ccccc2s1` [Compound 41, D-PHENYLALANYL-N-[4-[(AMINOIMINOMETHYL)AMINO]-1S-[(BENZOTHIAZOL-2-YL)CARBON YL]BUTYL]-L-PROLINAMIDE], the half-maximal inhibitory concentration (IC50) came out at 1 nM.

For `CN[C@H](Cc1ccccc1)C(=O)N1CCCC[C@H]1C(=O)N[C@@H](CCCNC(=N)N)C(=O)c1nc2ccccc2s1` [Compound 42, N-METHYL-D-PHENYLALANYL-N-[4-[(AMINOIMINOMETHYL)AMINO]-1S-[(BENZOTHIAZOL-2- YL)CARBONYL]BUTYL]-2S-PIPERIDINECARBOXAMIDE], the half-inhibitory concentration (IC50) came to 2 nM. On the same count and under the same terms, next, `C[C@@](N)(Cc1ccccc1)C(=O)N1CCC[C@H]1C(=O)N[C@@H](CCCNC(=N)N)C(=O)c1nc2ccccc2s1` [Compound 47]: 4 nM; `N=C(N)NCCC[C@H](NC(=O)[C@@H]1CCCN1)C(=O)c1nc2ccccc2s1` [Compound 48]: 684 nM.

The same assay, now with this note: 3.2 U/ml trypsin, 0.1-0.3 mM Spectrozyme TRY; read-out: Trp Ki (listed in place of the IC50).
Regarding `CN(C)c1cccc2c(S(=O)(=O)N[C@@H](CCCNC(=N)N)C(=O)N3CCCCC3CCC(=O)c3nccs3)cccc12` (single isomer, unassigned) [Compound 26], the inhibition constant (Ki) is 180000 nM. In the case of `CN(C)c1cccc2c(S(=O)(=O)N[C@@H](CCCNC(=N)N)C(=O)N3CCCCC3CCC(=O)c3nccs3)cccc12` (single isomer, unassigned) [Compound 27], the Ki stood at 12000 nM. On to `CC1CNc2c(cccc2S(=O)(=O)N[C@@H](CCCNC(=N)N)C(=O)N2CC[C@@H](C)C[C@@H]2C(=O)O)C1` (stereo partly shown) [Argatroban, reference compound], for which the inhibition constant (Ki) was determined as 2900 nM.

Regarding `CN[C@H](Cc1ccccc1)C(=O)N1CCC[C@H]1C(=O)N[C@@H](CCCNC(=N)N)C(=O)c1nc2ccc(OC)cc2s1` [Compound 50, N-METHYL-D-PHENYLALANYL-N-[4-[(AMINOIMINOMETHYL)AMINO]-1S-[(6-METHOXYBENXOT HIAZOL-2-YL)CARBONYL]BUTYL]-L-PROLINAMIDE], the Ki worked out at 2 nM.

In the case of `CN[C@H](Cc1ccccc1)C(=O)N1CCC[C@H]1C(=O)N[C@H](C=O)CCCNC(=N)N` [reference compound], the Ki came to 3.9 nM.
